Laboratory results reported in patent USRE32455E, “A-21978 antibiotics and process for their production” (priority 1985, dated 1987).
Values after ≈ are worked out from the molar mass of the structure shown. Values joined by “and” are separate entries in the source; they are usually repeats but may differ in a detail not shown here. Equal entries are not always repeated. Where two headings read alike, the source gives them in different places.

Columns and labels:
Eubacterium aerofaciens = test: MIC anaerobic bacteria, standard agar-dilution test; type: cell-based
Peptococcus prevoti = test: as above; type: cell-based
Micrococcus luteus = test: Bioassay, paper-disc agar-diffusion; details: Na salts; Table VIII
Streptococcus pyogenes [1] = test: MIC, agar dilution (Table XV); type: cell-based
Clostridium perfringens = type: cell-based; details: anaerobic, agar-dilution
[2] = tested on: Peptococcus asaccharolyticus; test: MIC anaerobic bacteria, standard agar-dilution test; type: cell-based
Fusobacterium symbiosum = test: as above; type: cell-based
[3] = tested on: Streptococcus pyogenes C203; test: MIC, standard agar-dilution test; type: cell-based; details: Table XI, sodium salt
[4] = tested on: Streptococcus pyogenes C203; test: MIC, standard broth-dilution test; type: cell-based; details: Table XII, sodium salt
[5] = tested on: Fusobacterium necrophorum; test: MIC anaerobic bacteria, standard agar-dilution test; type: cell-based
[6] = tested on: Viridans Streptococcus 9943; test: MIC, standard agar-dilution test; type: cell-based; details: Table XI, sodium salt
[7] = Electrometric titration in 66% aqueous dimethylformamide; type: physicochemical; details: 66% DMF; Na salt; factors: two determinations
Streptococcus pneumoniae [8] = test: Experimental bacterial infection in mice, ED50; type: in vivo; details: two doses, subcutaneous administration
Description: (§1) When two doses of test compound were administered to mice in illustrative infections, the activity observed was measured as an ED50 value [effective dose in mg/kg to protect fifty percent of the test animals: See Warren Wick, et al., J. Bacteriol. 81, 233-235 (1961)].

Staphylococcus aureus [9] = test: Experimental bacterial infection in mice, ED50; type: in vivo; details: two doses, subcutaneous administration
Description: as §1

Streptococcus pyogenes [10] = test: Experimental bacterial infection in mice, ED50; type: in vivo; details: two doses
Description: as §1

[11] = tested on: pathogenic organisms, particularly gram-positive bacteria; test: Inhibition of growth of pathogenic organisms; type: cell-based
Streptococcus pneumoniae [12] = test: MIC, agar dilution (Table XV); type: cell-based
Clostridium septicum = test: MIC anaerobic bacteria, standard agar-dilution test; type: cell-based
[13] = tested on: Neisseria gonorrhoeae 111076-4; test: MIC, standard agar-dilution test; type: cell-based; details: Table XI, sodium salt
[14] = tested on: Group D Streptococcus 282; test: MIC, standard broth-dilution test; type: cell-based; details: Table XII, sodium salt
[15] = tested on: Streptococcus pneumoniae Park I; test: MIC, standard broth-dilution test; type: cell-based; details: Table XII, sodium salt
[16] = tested on: Staphylococcus aureus 3055; test: MIC, standard agar-dilution test; type: cell-based; details: Table XI, sodium salt
Bacteroides fragilis = test: MIC anaerobic bacteria, standard agar-dilution test; type: cell-based
[17] = tested on: Peptostreptococcus anaerobius; test: as above; type: cell-based
[18] = tested on: Staphylococcus aureus 3055; test: MIC, standard broth-dilution test; type: cell-based; details: Table XII, sodium salt
Toxicity (LD50) in rat = type: in vivo; details: IV
Propionibacterium acnes = test: MIC anaerobic bacteria, standard agar-dilution test; type: cell-based
[19] = tested on: Viridans Streptococcus 9943; test: MIC, standard broth-dilution test; type: cell-based; details: Table XII, sodium salt
Staphylococcus aureus [20] = test: MIC, agar dilution (Table XV); type: cell-based
Excerpt: ^1 MIC = minimum inhibitory concentration (μg/ml), agar dilution

[21] = tested on: Peptostreptococcus intermedius; test: MIC anaerobic bacteria, standard agar-dilution test; type: cell-based
[22] = tested on: Streptococcus faecalis (Guze); test: Streptococcus faecalis descending rat pyelonephritis test; type: in vivo, rat (female albino, Cox-Wistar)
Description: In this test, the bacterial culture used was Streptococcus faecalis (Guze). The culture was grown on Trypticase soy agar (BBL), suspended in brain heart infusion broth (BBL), divided into 0.2-ml portions, and frozen in liquid nitrogen. Bacterial suspensions for rat inoculations were prepared daily by seeding a 50-ml flask of trypticase soy broth (BBL) from a frozen ampoule and growing the culture overnight at 37° C. on a shaker. The S. faecalis culture was diluted to 5×10^8 colony-forming units per ml. Test compounds were injected subcutaneously once daily for seven days. All compounds were suspended in 0.125% carboxymethylcellulose.
The experimental rat infections were accomplished by the following procedure. Female, random-bred albino rats (Cox-Wistar) weighing 190 to 210 g were anesthetized by intraperitoneal injection of 12 mg of sodium methohexital supplemented as necessary. The experimental pyelonephritis model was based on the studies of Guze and Beeson in which the left ureter was occluded for 20 min, followed by injection of 0.5 ml of the test organism in the femoral vein. Antimicrobial therapy was commenced 4 to 5 hrs postinfection. Four hours after the last treatment the rats were sacrificed, and the left kidney was removed and homogenized in a Duall grinder containing 9 ml of physiological saline. This represented a 10^-1 dilution of the kidney tissue. Additional 10-fold dilutions in saline were based on the anticipated bacterial cells present in the tissue homogenate. Finally, duplicate agar pour plates were made from several of these dilutions, and the plates were incubated overnight at 37° C. The therapeutic results were expressed in two ways: (i) the percentage of rats with kidney counts of less than 10^2 per g of kidney tissue, referred to as "cures," and (ii) the percentage of rats with at least a 4-log10 reduction in bacterial titer compared with infected control kidneys. Control rats were treated with 0.125% carboxymethylcellulose only. Viable cell counts in kidney tissue from control rats with S. faecalis ranged from 1.2×10^8 to 4.6×10^8 per g of homogenized tissue.

[23] = tested on: Streptococcus pneumoniae Park I; test: MIC, standard agar-dilution test; type: cell-based; details: Table XI, sodium salt
[24] = tested on: Streptococcus faecalis (Guze); test: In vitro susceptibility (MIC) of the S. faecalis Guze strain; type: cell-based
Toxicity (LD50) in mouse = type: in vivo
[25] = tested on: Group D Streptococcus 282; test: MIC, standard agar-dilution test; type: cell-based; details: Table XI, sodium salt
Actinomyces isaelii = test: MIC anaerobic bacteria, standard agar-dilution test; type: cell-based
S. roseosporus = test: Antibiotic sensitivity, sensitivity discs on seeded agar plates; type: cell-based, Streptomyces roseosporus; details: Conc./disc: erythromycin 15 μg, cephalothin 30 μg, lincomycin 2 μg, nystatin 100 units, polymyxin B 300 units, streptomycin 10 μg, tetracycline 30 μg, vancomycin "+μg"; further: key: +: sensitive (zones of inhibition); -: resistant (no zones of inhibition)
Description: Temperature range, NaCl tolerance, pH range, and antibiotic sensitivity were done using ISP #2 agar medium. The range of temperatures were: 25°, 28°, 30°, 34°, 37°, 40°, 45°, 50° and 55° C. […] These were incubated at 30° C. The pH range was measured by adjusting the agar from pH 3.0 to 11.0 at increments of 1.0 pH units, just prior to pouring. Antibiotic sensitivity was determined using sensitivity discs padded onto seeded agar plates.

A21978.6 = test: as above; type: cell-based, Streptomyces roseosporus; details: Conc./disc: erythromycin 15 μg, cephalothin 30 μg, lincomycin 2 μg, nystatin 100 units, polymyxin B 300 units, streptomycin 10 μg, tetracycline 30 μg, vancomycin "+μg"
Description: Temperature range, NaCl tolerance, pH range, and antibiotic sensitivity were done using ISP #2 agar medium. The range of temperatures were: 25°, 28°, 30°, 34°, 37°, 40°, 45°, 50° and 55° C. NaCl tolerance was measured by adding NaCl to the agar to equal: 0, 1, 2, 3, 4, 5, 6, 8, 10 and 12%. These were incubated at 30° C. The pH range was measured by adjusting the agar from pH 3.0 to 11.0 at increments of 1.0 pH units, just prior to pouring. Antibiotic sensitivity was determined using sensitivity discs padded onto seeded agar plates.
Wherever Antibiotic sensitivity is given: key: +: sensitive (zones of inhibition); -: resistant (no zones of inhibition).

CCC(C)CCCCCCC(=O)N[C@@H](Cc1c[nH]c2ccccc12)C(=O)NC(CC(N)=O)C(=O)N[C@@H](CC(=O)O)C(=O)N[C@@H]1C(=O)NCC(=O)N[C@@H](CCCN)C(=O)N[C@@H](CC(=O)O)C(=O)N[C@H](C)C(=O)N[C@@H](CC(=O)O)C(=O)NCC(=O)N[C@H](CO)C(=O)N[C@@H]([C@H](C)CC(=O)O)C(=O)N[C@@H](CC(=O)c2ccccc2N)C(=O)O[C@@H]1C (stereo in doubt) [Factor C1]
MIC (Eubacterium aerofaciens): 16 µg/mL (≈ 9.79 µM)
MIC (Peptococcus prevoti): 2 µg/mL (≈ 1.22 µM)
Bioassay (Micrococcus luteus) (Micrococcus luteus): 1663 units/mg
MIC (Streptococcus pyogenes [1]): 0.13 µg/mL (≈ 0.0795 µM)
MIC (Clostridium perfringens): 16 µg/mL (≈ 9.79 µM)
MIC [2]: 4 µg/mL (≈ 2.45 µM)
MIC (Fusobacterium symbiosum): > 128 µg/mL
MIC [3]: 0.13 µg/mL
MIC [4]: 0.5 µg/mL
MIC [5]: 64 µg/mL (≈ 39.2 µM)
MIC [6]: 0.5 µg/mL
pKa (first group) [7]: 5.7 and 5.9
ED50 (Streptococcus pneumoniae [8]): 0.3 mg/kg
ED50 (Staphylococcus aureus [9]): 0.22 mg/kg
ED50 (Streptococcus pyogenes [10]): 0.064 mg/kg
ED50 (Streptococcus pyogenes [10]; oral administration): 93 mg/kg
growth inhibition [11]: inhibit the growth of certain pathogenic organisms, particularly gram-positive bacteria
MIC (Streptococcus pneumoniae [12]): 0.13 µg/mL (≈ 0.0795 µM)
MIC (Clostridium septicum): 4 µg/mL (≈ 2.45 µM)
MIC [13]: 16.0 µg/mL
MIC [14]: 2.0 µg/mL
MIC [15]: 2.0 µg/mL
MIC [16]: 0.5 µg/mL
MIC (Bacteroides fragilis): > 128 µg/mL
MIC [17]: 2 µg/mL (≈ 1.22 µM)
MIC [18]: 1.0 µg/mL
LD50 (Toxicity (LD50) in rat): 479 ± 32 mg/kg
MIC (Propionibacterium acnes): 8 µg/mL (≈ 4.89 µM)
MIC [19]: 32.0 µg/mL
MIC (Staphylococcus aureus [20]): 0.5 µg/mL (≈ 0.306 µM)
MIC [21]: 4 µg/mL (≈ 2.45 µM)
Percent of Rats Cured ([22]; 1.0 mg/kg × 7, subcutaneous): 50%
Percent of Rats with a 4-Log Titer Decrease ([22]; 1.0 mg/kg × 7, subcutaneous): 50%
MIC [23]: 0.13 µg/mL
MIC ([24]; Table XVI): 1.0 µg/mL (≈ 0.612 µM)
LD50 (Toxicity (LD50) in mouse; IV): > 250 mg/kg
LD50 (Toxicity (LD50) in mouse; SC): > 365 mg/kg
MIC [25]: 1.0 µg/mL
MIC (Actinomyces isaelii): 4 µg/mL (≈ 2.45 µM)

Polymyxin B
Antibiotic sensitivity (S. roseosporus): -
Antibiotic sensitivity (A21978.6): +

[H]/N=C(/N)N[C@H]1[C@H](O)[C@@H](O)[C@H](O[C@@H]2O[C@@H](C)[C@](O)(C=O)[C@H]2O[C@@H]2O[C@@H](CO)[C@H](O)[C@@H](O)[C@@H]2NC)[C@@H](N/C(N)=N\[H])[C@@H]1O [Streptomycin]
Antibiotic sensitivity (S. roseosporus): +
Antibiotic sensitivity (A21978.6): +

CC(=O)OCC1=C(C(=O)O)N2C(=O)[C@@H](NC(=O)Cc3cccs3)[C@H]2SC1 [Cephalothin]
Antibiotic sensitivity (S. roseosporus): +
Antibiotic sensitivity (A21978.6): +

CN(C)C1C(=O)C(C(N)=O)=C(O)C2(O)C(=O)C3=C(O)c4c(O)cccc4C(C)(O)C3CC12 (stereo not shown) [Tetracycline]
Antibiotic sensitivity (S. roseosporus): +
Antibiotic sensitivity (A21978.6): +

CC[C@H]1OC(=O)[C@H](C)[C@@H](O[C@H]2C[C@@](C)(OC)[C@@H](O)[C@H](C)O2)[C@H](C)[C@@H](O[C@@H]2O[C@H](C)C[C@H](N(C)C)[C@H]2O)[C@](C)(O)C[C@@H](C)C(=O)[C@H](C)[C@@H](O)[C@]1(C)O [Erythromycin, reference compound]
MIC (Streptococcus pyogenes [1]; Streptococcus pyogenes, read-out: MIC): 0.13 µg/mL (≈ 0.177 µM)
Antibiotic sensitivity (S. roseosporus): +
Antibiotic sensitivity (A21978.6): +
MIC (Streptococcus pneumoniae [12]; Streptococcus pneumoniae, read-out: MIC): 0.5 µg/mL (≈ 0.681 µM)
MIC (Staphylococcus aureus [20]; Staphylococcus aureus, read-out: MIC): 0.13 µg/mL (≈ 0.177 µM)

CN[C@H](CC(C)C)C(=O)N[C@H]1C(=O)N[C@@H](CC(N)=O)C(=O)N[C@H]2C(=O)N[C@H]3C(=O)N[C@H](C(=O)N[C@H](C(=O)O)c4cc(O)cc(O)c4-c4cc3ccc4O)[C@H](O)c3ccc(c(Cl)c3)Oc3cc2cc(c3O[C@@H]2O[C@H](CO)[C@@H](O)[C@H](O)[C@H]2O[C@H]2C[C@](C)(N)[C@H](O)[C@H](C)O2)Oc2ccc(cc2Cl)[C@H]1O [Vancomycin, reference compound]
Antibiotic sensitivity (S. roseosporus): +
Antibiotic sensitivity (A21978.6): +
Percent of Rats Cured ([22]; 12.0 mg/kg × 7, subcutaneous): 33%
Percent of Rats with a 4-Log Titer Decrease ([22]; 12.0 mg/kg × 7, subcutaneous): 55%
MIC ([24]; Enterococcus faecalis): 1 µg/mL (≈ 0.69 µM)

C[C@@H]1[C@H](O)[C@@H](C)/C=C/C=C/CC/C=C/C=C/C=C/C=C/C(O[C@H]2O[C@H](C)[C@@H](O)[C@H](N)[C@@H]2O)CC2O[C@](O)(CC(O)C(O)CCC(O)CC(O)CC(O)CC(=O)O[C@H]1C)CC(O)C2C(=O)O (stereo partly shown) [Nystatin]
Antibiotic sensitivity (S. roseosporus): -
Antibiotic sensitivity (A21978.6): -

CCC[C@@H]1C[C@@H](C(=O)N[C@@H]([C@H]2O[C@H](SC)[C@H](O)[C@@H](O)[C@H]2O)[C@@H](C)O)N(C)C1 [Lincomycin]
Antibiotic sensitivity (S. roseosporus): -
Antibiotic sensitivity (A21978.6): -
